Experimental data published in US11358972B2, “Pentacyclic heterocycles” (Eisai R&D Management Co., Ltd., priority 2019, dated 2022).

Experiments:
[1] = tested on: Choline Acetyltransferase (ChAT) mRNA; test: Measurement of choline acetyltransferase (ChAT) mRNA expression levels in the rat septal area; type: in vivo; conditions: po, 3 mg/kg orally, SD male rats, medial septum, 24 hours after administration, read-out: Amount (%) increased from the amount of ChAT mRNA expression levels in the vehicle administration group
Protocol: Measurement of Choline Acetyltransferase (ChAT) mRNA Expression Levels in the Rat Septal Area (1) Compound Administration
In this study, Sprague-Dawley male rats (Charles River Laboratories Japan, Inc.) with a body weight of about 250 to 350 g were used. The test compound was dissolved in 0.01 mol/L hydrochloric acid, and orally administered.
At 24 hours after the administration of the compound, the whole brain tissue was collected under pentobarbital anesthesia. The medial septum was isolated from whole brain on ice and frozen with liquid nitrogen, and then stored at −80° C.
(3) Measurement of ChAT mRNA Expression Levels
For RNA purification, RNeasy™ Plus Mini Kit (#74136: QIAGEN) was used in this study. RNA purification was performed by the method described in the kit After RNA purification, the total RNA concentration was measured by using QIAxpert Instrument (QIAGEN). cDNA was synthesized using SuperScript™ VILO™ cDNA Synthesis Kit (#11754: Thermo Fisher Scientific). The synthesis of cDNA was performed by the method described in the kit. The synthesized cDNA was diluted 4 times with RNase free water, and the diluted cDNA solution was used as a sample. Taqman™ Universal PCR Master Mix (#4304437: Thermo Fisher Scientific), Taqman™ Gene Expression Assays, INVENTORIED (#4331182: Thermo Fisher Scientific), RNase free water, and the cDNA solution were mixed in amounts of 10 μL, 1 μL, 4 μL, and 5 μL, respectively, and the resulting mixture was used as a measurement sample solution. Quantitative polymerase chain reaction (qPCR) was conducted using ABI PRISM™ 7900HT (Thermo Fisher Scientific) by a fluorescence probe method. Analysis was performed by SDS 2.4 (Thermo Fisher Scientific). The results were calculated by the percentage of the amount of ChAT mRNA expression levels in the compound administration group increased from the amount of ChAT mRNA expression levels in the vehicle administration group.

[2] = tested on: Rat primary septal neuron culture; test: Measurement of acetylcholine (ACh) release in the rat primary septal neuron culture system; type: cell-based; conditions: 24 h, rat primary septal neurons, with NGF, ACh release measured by HPLC one day after compound addition, read-out: Concentration (μM) showing a 20% or more increase from the amount of ACh in the control group
Description: Measurement of Acetylcholine (ACh) Release in the Rat Primary Septal Neuron Culture System
(1) Rat Primary Septal Neuron Culture
The septal area was isolated from Sprague-Dawley (SD) rats (Charles River Laboratories Japan, Inc.) at a fetal age of 18 days, and cultured. Specifically, fetuses were removed from pregnant rats under isoflurane anesthesia. The brain was extracted from each fetus, and immersed in ice-cooled L-15 medium (11415-064, Thermo Fisher Scientific). The septal area was dissected from the extracted brain under a stereoscopic microscope. The dissected septal area was treated in 0.25% trypsin (15050-065, Thermo Fisher Scientific) and 0.01% DNase (D5025-150KU, Sigma) at 37° C. for 30 minutes, thereby dispersing the cells. In this case, the enzyme reaction was terminated by adding inactivated horse serum (26050-088, Thermo Fisher Scientific). The enzyme-treated solution was centrifuged at 1000 rpm for 3 minutes, and the supernatant was removed. A medium in an amount of 10 mL was added to the obtained cell mass. The medium used was Dulbecco's Modified Eagle's Medium (044-29765, WAKO) supplemented with N2 supplement (17502-048, Thermo Fisher Scientific), 1 mM sodium pyruvate (11360-070, Thermo Fisher Scientific), and Penicillin-Streptomycin (15140-1221, Thermo Fisher Scientific). The cells of the cell mass to which the medium was added were redispersed by gentle pipetting, and then centrifuged again at 1000 rpm for 3 minutes, and the supernatant was removed. The medium in an amount of 10 mL was added to the obtained cell mass, and the cell dispersion was filtered through a 40-μm nylon mesh (Cell Strainer) to remove the cell mass, thereby obtaining a neuronal cell suspension. The neuronal cell suspension was diluted with the medium, and 10% inactivated bovine serum (26140-079, Thermo Fisher Scientific) and 10% inactivated horse serum were added. Thereafter, 100 μL/well of the suspension was seeded in a 96-well plate (354461, CORNING) pre-coated with poly-D-lysine so that the initial culture density was 1.2×10^5 cells/cm^2. After the seeded cells were cultured under 5% CO2-95% air in a 37° C. incubator for 2 days, the entire medium was replaced with 120 μL of fresh medium, and the cells were subsequently cultured for 5 days.
On the 7th day of culture, compounds were added in the following manner. A solution of the test compound in DMSO was diluted with the medium so that the concentration was 10 times higher than the final concentration. Nerve Growth Factor (450-01, PEPRO TECH, INC.) was prepared at […]. These two solutions were added each in an amount of 15 μL/well, and the mixture was mixed well. The final DMSO concentration was 0.1% or less. Moreover, only DMSO and NGF were added to the control group.
(3) ACh Release Measurement
One day after the compound addition, an amount of ACh release was measured by HPLC in the following manner. A warmed buffer was added at 100 μL/well to the well after the medium was eliminated, and the buffer was immediately removed. Thereafter, a buffer to which 10 μm choline, 10 μm physostigmine, and 6 mM KCl were added was added at 120 μL/well. The buffer was prepared by adding 125 mM NaCl, 25 mM 4-(2-hydroxyethyl)-1-piperazineethanesulfonic acid, 1.2 mM KH2PO4, 1.2 mM MgSO4, 2.2 mM CaCl2 (2H2O), and 10 mM glucose to sterilized water, and the final pH of the solution was set to 7.4. After the 96-well plate to which the buffer was added was incubated under 5% CO2-95% air in a 37° C. incubator for 40 minutes, 80 μL of buffer was collected. An internal standard solution IPHC (5×10^−7 M) was added in an amount of 6 μL to the collected buffer, and the buffer was transferred to a tube for HPLC measurement and subjected to HPLC measurement. […]

SMILES	change in vivo at 3 mg/kg [1]	minimal effective concentration [2]
CN1Cc2nc3c(oc4ccccc43)c(=O)n2[C@@H]2CN(CCF)C[C@H]2C1=O (relative stereo) [Example 17, (−)-(3a,14a-trans)-2-(2-fluoroethyl)-5-methyl-2,3,3a,5,6,14a-hexahydro-1H-benzofuro[3′,2′:4,5]pyrimido[1,2-a]pyrrolo[3,4-f][1,4]diazepine-4,13-dione]	44.6%	0.03 µM
COCCN1CCc2c(sc3nc4n(c(=O)c23)[C@H]2CCC[C@@H]2C(=O)N(C)C4)C1 [Example 16, (3aS,4aS)-10-(2-methoxyethyl)-5-methyl-2,3,3a,5,6,9,10,11,12,14a-decahydro-1H-cyclopenta[f]pyrido[4″,3″:4′,5′]thieno[2′,3′:4,5]pyrimido[1,2-a][1,4]diazepine-4,13-dione]	42.5%	0.03 µM
